In US20070066570A1, “Methods for treating sleep disorders” (priority 2003, published 2007):

Tested on: Adult, male Wistar rats
Experiment: Sleep-wakefulness monitoring (EEG/EMG, SCORE-2000) in rats: NREM sleep cumulation and longest uninterrupted sleep bout
Format: in vivo, rat
Conditions: for LUSB (longest uninterrupted sleep bout each hour, mean adjusted for baseline and vehicle control) / NREM (mean maximum cumulation of NREM sleep over baseline, adjusted for baseline and vehicle control): intraperitoneal bolus at CT-18, male Wistar rats; for Increase of LUSB versus vehicle control (FIGS. 4-6), in words / Increase of NREM sleep cumulation versus vehicle control (FIGS. 1-3), in words: rats
Procedure: Sleep-wakefulness, locomotor activity and body temperature were monitored in vivo with the disclosed racemic sleep-inducing agent 1 and its R and S isomers 1-R and 1-S. Adult, male Wistar rats (250 g at time of surgery, Charles River Laboratories, Wilmington Mass.) were anesthetized (Nembutal, 62 mg/kg) and surgically prepared with a cranial implant to permit chronic electro-encephalogram (EEG) and electromyogram (EMG) recording. Body temperature and locomotor activity were monitored via a miniature transmitter (Mini-Mitter, Bend, Oreg.) surgically placed in the abdomen. The cranial implant consisted of stainless steel screws (two frontal [+3.2 AP from bregma, ±2.0 ML] and two occipital [−6.9 AP, ±5.5 ML]) for EEG recording. Two Teflon®-coated stainless steel wires were positioned under the nuchal trapezoid muscles for EMG recording. All leads were soldered to a miniature connector prior to surgery, and gas sterilized in ethylene oxide. The implant assembly was affixed to the skull with dental acrylic. A minimum of three weeks was allowed for surgical recovery.
Each rat was permanently housed in its own individual recording cage located within separate, ventilated compartments of custom- designed stainless steel cabinets. Each cage was enhanced with a filter-top riser and low-torque swivel-commutator. Food and water were available ad libitum. A 24-hr light-dark cycle (12 hours light, 12 hours dark) was maintained throughout the study using 4-watt fluorescent bulbs 5 cm from the cage. Animals were undisturbed for at least 48 hours before and after treatments.
Sleep and wakefulness were determined using “SCORE-2000™” (Hypnion, Worcester, Mass.)—an internet-based sleep-wake and physiological monitoring system. The system monitored amplified EEG (bandpass 1-30 Hz; digitization rate 400 Hz), integrated EMG (bandpass 10-100 Hz), body temperature and non-specific locomotor activity (LMA) via telemetry, and drinking activity, continuously and simultaneously. Arousal states were classified on-line as non-REM (NREM) sleep, REM sleep, wake, or theta-dominated wake every 10 seconds using EEG feature extraction and pattern-matching algorithms. […] The classification algorithm used individually-taught EEG-arousal-state templates, plus EMG criteria to differentiate REM sleep from theta-dominated wakefulness, plus behavior-dependent contextual rules (e.g., if the animal was drinking, it is awake). Drinking and locomotor activity (LMA) were recorded as discrete events every 10 seconds, while body temperature was recorded each minute. Locomotor activity was detected by a telemetry receiver (Mini-Mitter) beneath the cage. Telemetry measures (LMA and body temperature) were not part of the scoring algorithm; thus, sleep-scoring and telemetry data were independent measures.
Compounds were administered at CT-18, the peak of the activity-dominated period, in order to ensure prior wakefulness was sufficient to interact positively with hypnotic-drug effects, and sufficient time was allowed to view the time course of the treatment effect before lights-on (6 hours post-treatment). Compounds were suspended in sterile 0.25% or 0.5% methylcellulose (2 ml/kg). Treatments were administered as an intraperitoneal bolus.
A parallel group study design was employed. Vehicle controls were drawn from a large pool (N>200): a subset of the pooled vehicle controls was selected, based on computerized matching with the 24-hour pre-treatment baseline of the active treatment group.
In Table 1, N is the number of trials, and NREM and LUSB values are means adjusted for both baseline and vehicle control values. NREM represents the mean maximum cumulation of NREM sleep in minutes over baseline as a function of time in hours after treatment with the compound or the vehicle control; LUSB is the longest uninterrupted sleep bout each hour in minutes as a function of circadian time.

Q: For `O=C(O)[C@@H]1CCCN(CCC=C2c3ccccc3CCc3ccccc32)C1` [Compound 1-R], which “LUSB (longest uninterrupted sleep bout each hour, mean adjusted for baseline and vehicle control)” value (10 mg/kg) is on record?
A: 2.5 min

Q: What about the “NREM (mean maximum cumulation of NREM sleep over baseline, adjusted for baseline and vehicle control)” value (10 mg/kg) of the same compound?
A: 3.4 min

Q: And the “LUSB (longest uninterrupted sleep bout each hour, mean adjusted for baseline and vehicle control)” value (30 mg/kg)?
A: 5.8 min

Q: And the “NREM (mean maximum cumulation of NREM sleep over baseline, adjusted for baseline and vehicle control)” value (30 mg/kg)?
A: 20.7 min

Q: And the “Increase of LUSB versus vehicle control (FIGS. 4-6), in words” value (30 mg/kg)?
A: effective at increasing LUSB

Q: And the “Increase of NREM sleep cumulation versus vehicle control (FIGS. 1-3), in words” value (“Increase … (FIGS. 1-3), in words” for short) (30 mg/kg)?
A: effective at increasing NREM cumulation

Q: And the “LUSB (longest uninterrupted sleep bout each hour, mean adjusted for baseline and vehicle control)” value (45 mg/kg)?
A: 10.3 min

Q: And the “NREM (mean maximum cumulation of NREM sleep over baseline, adjusted for baseline and vehicle control)” value (45 mg/kg)?
A: 31.8 min

Q: How did the “LUSB (longest uninterrupted sleep bout each hour, mean adjusted for baseline and vehicle control)” value (3 mg/kg) turn out when `O=C(O)C1CCCN(CCC=C2c3ccccc3CCc3ccccc32)C1` (racemic) [Compound 1] was run?
A: 4.7 min

Q: What about the “NREM (mean maximum cumulation of NREM sleep over baseline, adjusted for baseline and vehicle control)” value (3 mg/kg) of the same compound?
A: 15 min

Q: And the “LUSB (longest uninterrupted sleep bout each hour, mean adjusted for baseline and vehicle control)” value (10 mg/kg)?
A: 2.8 min

Q: And the “NREM (mean maximum cumulation of NREM sleep over baseline, adjusted for baseline and vehicle control)” value (10 mg/kg)?
A: 24.8 min

Q: What about the “Increase … (FIGS. 1-3), in words” value (10 mg/kg) of the same compound?
A: particularly effective

Q: And the “LUSB (longest uninterrupted sleep bout each hour, mean adjusted for baseline and vehicle control)” value (30 mg/kg)?
A: 4.9 min

Q: And the “NREM (mean maximum cumulation of NREM sleep over baseline, adjusted for baseline and vehicle control)” value (30 mg/kg)?
A: 35.4 min

Q: And the “Increase of LUSB versus vehicle control (FIGS. 4-6), in words” value (30 mg/kg)?
A: effective at increasing LUSB

Q: And the “Increase … (FIGS. 1-3), in words” value (30 mg/kg)?
A: effective at increasing NREM cumulation

Q: What does the source list for `O=C(O)[C@H]1CCCN(CCC=C2c3ccccc3CCc3ccccc32)C1` [Compound 1-S]?
A: LUSB (longest uninterrupted sleep bout each hour, mean adjusted for baseline and vehicle control) (10 mg/kg): 5.5 min; NREM (mean maximum cumulation of NREM sleep over baseline, adjusted for baseline and vehicle control) (10 mg/kg): 31.9 min; Increase of NREM sleep cumulation versus vehicle control (FIGS. 1-3), in words (10 mg/kg): particularly effective; LUSB (longest uninterrupted sleep bout each hour, mean adjusted for baseline and vehicle control) (30 mg/kg): 9.7 min; NREM (mean maximum cumulation of NREM sleep over baseline, adjusted for baseline and vehicle control) (30 mg/kg): 31.8 min; Increase of LUSB versus vehicle control (FIGS. 4-6), in words (30 mg/kg): effective at increasing LUSB; Increase of NREM sleep cumulation versus vehicle control (FIGS. 1-3), in words (30 mg/kg): effective at increasing NREM cumulation
